In patent publication US20110245105A1, “Methods and Kits for Direct Detection and Susceptibility Profiling of Beta-Lactam Resistant Bacteria” (YISSUM RESEARCH DEVELOPMENT COMPANY OF THE HEBREW …, priority 2008, published 2011):

Assays:
Format in all cases: cell-based
E. coli [1] = experiment: modular antibiotic resistance detection kit on urine sample pellets
Experimental: (§1) A modular antibiotic resistance detection kit offers more flexibility in testing different resistance profiles. In the modular detection kit exemplified here, the ART strip is replaced by filter paper segments glued to a slide, each segment impregnated with a single antibiotic.
(§2) Specifically, pathogen samples were tested using filter papers impregnated with the following beta-lactam antibiotics: ampicillin [Amp], augmentin (a combination of amoxicillin and clavulanic acid) [AMC], clavulanic acid (Reduced Resistance test) [RR], ceftazidime [Caz] and either imipenem or meropenem [CPM]. The impregnation details of the fragments were as in the previous Examples.
(§3) Filter paper (Whatman no. 3] strips impregnated with Assay Reagent solution were used as “indicator strips”. An indicator strip was attached to the plain top slide as shown in FIG. 2. Aliquots of the pellets of the urine samples tested were placed on each of the segments. The test was started by placing the activated indicator-strip-slide, on the modular antibiotic slide. The scan results obtained after 5-10 min at 38° C. are illustrated schematically in FIG. 2 where all segments, except for the negative (no antibiotic) control, show decolorization indicating resistance to each antibiotic in that array.
(§4) Samples resistant to ceftazidime but affected by clavulanic acid were assumed to contain extended spectrum beta lactamases (ESBLs). The ‘Confirmed’ detections column summarizes the number of CLP-validated results out of the total findings recorded.

Citrobacter freundii = experiment: as above; conditions: profile r23, ESBL Pos; note: key: R = resistant; S = sensitive
Experimental: as §1, §2, §3, §4

Proteus mirabilis = experiment: as above
Experimental: as §1, §2, §3, §4

K. pneumoniae [2] = experiment: as above
Experimental: as §1, §2, §3, §4

Morg. morganii [3] = experiment: ART strip test on urine sample pellets
Experimental: (§5) Filter paper (Whatman no. 3) strips impregnated with 50 mM potassium iodide and 10 mM iodine in 0.75% aqueous starch solution were divided into 6 test areas. Appropriate antibiotic substrates were prepared at a final concentration of 20 mg/mL. Each test area was impregnated with 30 μL of the appropriate solution. The strips were then dried in a lyophilizer and stored with a desiccant at 4° C.
(§6) One mL urine samples were spun 2 minutes at 3000 RPM in room temperature. Supernatants were removed and aliquots of the resulting pellets were streaked on standard slides.
(§7) The product of the enzymatic degradation of a beta-lactam antibiotic removes the iodine from the ART strip and causes local decolorization in that strip. Typically, a detection kit consists of two slides, as illustrated in FIG. 2. The bottom slide is streaked with the sample to be tested. The top slide (lid) carries the ART strip which is activated when each test area on the strip receives 25 μL of the activator solution consisting of 40 mg gelatin in 100 mL phosphate buffer pH 6.5. The test starts when the top slide carrying the freshly activated ART strip contacts the bottom slide carrying the sample. It may be carried out at ambient temperatures but will be accelerated by warming-up to 41° C. […] Result is confirmed if no decolorization took place in the absence of the bacteria (the background of that test area) or in the absence of the antibiotic (as in Test Area 2 in FIG. 1).
(§8) One mL urine sample pellets were collected as described in Example 1 and each streaked on a slide. The strip of the invention (termed ART for Antibiotics Resistance Test) was used to test for beta-lactamase and its ability to degrade Ceftazidime [Caz], Ceftriaxone [Cro], Cefuroxime [Cxm] and Ampicillin [Amp]. The strip, containing iodine and starch and divided to areas containing each of the abovementioned antibiotics, and attached to a plain slide, was activated as shown above, and placed on the streaked slide. After 5-15 minutes at 33° C.-38° C. the slide was scanned and recorded.

E. faecalis = experiment: ART strip test on urine sample pellets; conditions: 4 samples (r27)
Experimental: as §5, §6, §7, §8

Acinetobacter sp. = experiment: ART strip test on urine sample pellets; conditions: 1 sample (r29)
Experimental: as §5, §6, §7, §8

Citr. koseri = experiment: ART strip test on urine sample pellets; conditions: 2 samples (r25)
Experimental: as §5, §6, §7, §8

Str. agalactiae = experiment: ART strip test on urine sample pellets; conditions: 3 samples (r34)
Experimental: as §5, §6, §7, §8

Staphylococcus sp. = experiment: ART strip test on urine sample pellets
Experimental: as §5, §6, §7, §8

Prot. mirabilis = experiment: ART strip test on urine sample pellets
Experimental: as §5, §6, §7, §8

K. oxytoca = experiment: ART strip test on urine sample pellets
Experimental: as §5, §6, §7, §8

K. pneumoniae [4] = experiment: ART strip test on urine sample pellets
Experimental: as §5, §6, §7, §8

Morg. morganii [5] = experiment: conventional lab procedures [CLP], resistance of bacterial isolates; conditions: 1 sample (r23)
Source text: (§9) The same specimens were examined using conventional lab procedures [CLP] that determined the identity of the bacterial isolates and their resistance to the above beta-lactams.

K. pneumoniae [6] = experiment: as above; conditions: profile r19 of Table 2
Source text: as §9

E. coli [7] = experiment: ART strip (Antibiotics Resistance Test), iodometric detection of beta-lactam hydrolysis by un-cultured urine sample pellets
Experimental: as §5, §6, §7, §8

[8] = tested on: carbapenem-resistant Enterobacteriaceae; experiment: modular kit for detection of CRE in urine sample; conditions: CRE-containing urine sample pellets; 12 minutes at 38° C.
Experimental: The kit constructed as a twin-slide [as illustrated by FIG. 1] carries an “OCTET” strip impregnated [as in Example 1] with an array of eight beta-lactam antibiotics and 1 non-beta-lactam control [S].
To illustrate the life-saving potential of the proposed technology which eliminates delays in diagnosis of carbapenem-resistant members of the Enterobacteriaceae family (CRE), a CRE sample was analyzed using the invention's modular kit, containing ampicillin, ceftazidime, augmentin, cefotaxime, imipenem, cefuroxime, meropenem and ceftriaxone as beta-lactamase substrates and a non-beta-lactam antibiotic, served as a negative control.
Filter paper segments were glued to a slide, each segment impregnated with a single antibiotic of the abovementioned antibiotics and streaked with carbapenem-resistant Enterobacteriaceae-containing urine sample pellets, prepared as described in Examples 1 to 3. The slide was contacted with indicator strips attached to a slide.

E. coli [9] = experiment: conventional lab procedures [CLP], resistance of bacterial isolates; conditions: profile r9 of Table 2; note: key: R = resistant; S = sensitive
Source text: as §9

[10] = E. coli (16 samples), profile r6, ESBL Neg, 5-10 min at 38° C.
[11] = Proteus mirabilis (3 samples), profile r25, ESBL Pos
[12] = Proteus mirabilis, profile r26, ESBL Pos
[13] = Proteus mirabilis, profile r27, ESBL Neg
[14] = K. pneumoniae (5 samples), profile r17, ESBL Pos
[15] = K. pneumoniae, profile r18, ESBL Pos
[16] = K. pneumoniae, profile r20, ESBL Pos
[17] = K. pneumoniae, profile r21, ESBL Neg

CC(C)(O/N=C(\C(=O)N[C@@H]1C(=O)N2C(C(=O)[O-])=C(C[n+]3ccccc3)CS[C@H]12)c1csc(N)n1)C(=O)O [Caz, Ceftazidime]
resistance found with modular kit (E. coli [1]; [10]): S
resistance found with modular kit (E. coli [1]; E. coli, profile r9, ESBL Neg): S
resistance found with modular kit (E. coli [1]; E. coli, profile r10, ESBL Neg): S
resistance found with modular kit (E. coli [1]; E. coli, profile r11, ESBL Neg): S
resistance found with modular kit (E. coli [1]; E. coli, profile r12, ESBL Neg): S
resistance found with modular kit (E. coli [1]; E. coli, profile r14, ESBL Pos): R
resistance found with modular kit (E. coli [1]; E. coli, profile r15, ESBL Pos): R
resistance found with modular kit (Citrobacter freundii): R
resistance found with modular kit (Proteus mirabilis; [11]): R
resistance found with modular kit (Proteus mirabilis; [12]): R
resistance found with modular kit (Proteus mirabilis; [13]): S
resistance found with modular kit (K. pneumoniae [2]; [14]): R
resistance found with modular kit (K. pneumoniae [2]; [15]): R
resistance found with modular kit (K. pneumoniae [2]; K. pneumoniae, profile r19): R
resistance found with modular kit (K. pneumoniae [2]; [16]): R
resistance found with modular kit (K. pneumoniae [2]; [17]): S
resistance profile predicted by ART (Morg. morganii [3]; 1 sample (r22)): S
resistance profile predicted by ART (Morg. morganii [3]; 1 sample (r23)): S
resistance profile predicted by ART (E. faecalis): S[nd]
resistance profile predicted by ART (Acinetobacter sp.): S
resistance profile predicted by ART (Citr. koseri): S
resistance profile predicted by ART (Str. agalactiae): S[nd]
resistance profile predicted by ART (Staphylococcus sp.; 1 sample (r31)): S
resistance profile predicted by ART (Staphylococcus sp.; 1 sample (r32)): S
resistance profile predicted by ART (Prot. mirabilis; 1 sample (r18)): S
resistance profile predicted by ART (Prot. mirabilis; 1 sample (r19)): S
resistance profile predicted by ART (Prot. mirabilis; 1 sample (r20)): R
resistance profile predicted by ART (Prot. mirabilis; 6 samples (r17)): S
resistance profile predicted by ART (K. oxytoca; 1 sample (r15)): S
resistance profile predicted by ART (K. oxytoca; 3 samples (r14)): S
resistance profile predicted by ART (K. pneumoniae [4]; 1 sample (r12)): S
resistance profile predicted by ART (K. pneumoniae [4]; 8 samples (r11)): S
resistance profile predicted by ART (K. pneumoniae [4]; 11 samples (r10), MDR): R
CLP result differing from ART (in brackets) (Morg. morganii [5]): R
CLP result differing from kit (in brackets) (K. pneumoniae [6]): S
resistance profile predicted by ART (E. coli [7]; 3 samples (r8), MDR): R
resistance profile predicted by ART (E. coli [7]; 12 samples (r7)): S
resistance profile predicted by ART (E. coli [7]; 28 samples (r6), 5-15 minutes at 33° C.-38° C.): S

augmentin [AMC]
resistance found with modular kit (E. coli [1]; [10]): S
resistance found with modular kit (E. coli [1]; E. coli, profile r7): S
resistance found with modular kit (E. coli [1]; E. coli, profile r8): S
resistance found with modular kit (E. coli [1]; E. coli, profile r9, ESBL Neg): R
resistance found with modular kit (E. coli [1]; E. coli, profile r10, ESBL Neg): I
resistance found with modular kit (E. coli [1]; E. coli, profile r11, ESBL Neg): I
resistance found with modular kit (E. coli [1]; E. coli, profile r12, ESBL Neg): I
resistance found with modular kit (E. coli [1]; E. coli, profile r13): R
resistance found with modular kit (E. coli [1]; E. coli, profile r14, ESBL Pos): R
resistance found with modular kit (E. coli [1]; E. coli, profile r15, ESBL Pos): R
resistance found with modular kit (Citrobacter freundii): R
resistance found with modular kit (Proteus mirabilis; [11]): I
resistance found with modular kit (Proteus mirabilis; [12]): S
resistance found with modular kit (Proteus mirabilis; [13]): R
resistance found with modular kit (K. pneumoniae [2]; [14]): I
resistance found with modular kit (K. pneumoniae [2]; [15]): R
resistance found with modular kit (K. pneumoniae [2]; K. pneumoniae, profile r19): R
resistance found with modular kit (K. pneumoniae [2]; [16]): R
resistance found with modular kit (K. pneumoniae [2]; [17]): S
hydrolysis by the tested specimen (decolorization) [8]: hydrolysis
CLP result differing from kit (in brackets) (E. coli [9]): S
